According to the NIST ThermoML archive (doi:10.1021/acs.jced.5b00860):
Numbers after ± are expanded uncertainties.

Settings: for surface tension liquid-gas: Maximal bubble pressure; for electrical conductivity / viscosity / mass density: 101.33 kPa, Liquid; for electrical conductivity: Alternating current cell with electrodes; for viscosity: Concentric cylinders viscometry; for mass density: Vibrating tube method

CCCCn1cc[n+](C)c1.O=C([O-])O [1-butyl-3-methylimidazolium hydrogen carbonate]
Settings	electrical conductivity [S/m]	mass density [kg/m3]	surface tension liquid-gas [mN/m]	viscosity [mPa·s]
288.15 K	0.274 ± 0.027	1164.1 ± 4.7	34.9 ± 3.5	122.9 ± 7.6
293.15 K	0.322 ± 0.032	1160.5 ± 4.7	34.4 ± 3.5	94.8 ± 5.8
298.15 K	0.376 ± 0.038	1157.08 ± 4.6	34 ± 3.4	73.73 ± 4.5
303.15 K	0.439 ± 0.044	1153.64 ± 4.6	33.5 ± 3.4	57.64 ± 3.5
308.15 K	0.496 ± 0.05	1150 ± 4.6	33.1 ± 3.3	45.33 ± 2.7
313.15 K	0.557 ± 0.056	1146.51 ± 4.6	32.6 ± 3.3	35.86 ± 2.2
318.15 K	0.622 ± 0.062	1142.95 ± 4.6	32.2 ± 3.2	28.85 ± 1.7
323.15 K	0.689 ± 0.069	1139.45 ± 4.6	31.7 ± 3.2	22.93 ± 1.4
328.15 K	0.755 ± 0.076	1136.1 ± 4.6	31.2 ± 3.1	18.54 ± 1.1
333.15 K	0.823 ± 0.082	1132.53 ± 4.5	30.8 ± 3.1	14.81 ± 0.9
338.15 K	0.893 ± 0.089	1128.92 ± 4.5	30.4 ± 3.1	11.88 ± 0.72
343.15 K	0.963 ± 0.096	1125.52 ± 4.5	29.9 ± 3	10.04 ± 0.61

CCC[n+]1ccn(C)c1.O=P([O-])(O)O [1-methyl-3-propylimidazolium dihydrogen phosphate]
Settings	electrical conductivity [S/m]	mass density [kg/m3]	surface tension liquid-gas [mN/m]	viscosity [mPa·s]
288.15 K	0.469 ± 0.047	1202.41 ± 4.8	46.4 ± 4.7	99.38 ± 6.1
293.15 K	0.536 ± 0.054	1198.96 ± 4.8	46.1 ± 4.6	78.41 ± 4.8
298.15 K	0.613 ± 0.061	1195.45 ± 4.8	45.8 ± 4.6	61.92 ± 3.7
303.15 K	0.693 ± 0.069	1191.95 ± 4.8	45.5 ± 4.6	49.58 ± 3
308.15 K	0.785 ± 0.079	1188.45 ± 4.8	45.2 ± 4.5	39.3 ± 2.4
313.15 K	0.879 ± 0.088	1184.95 ± 4.8	44.9 ± 4.5	32.16 ± 1.9
318.15 K	0.977 ± 0.098	1181.43 ± 4.7	44.6 ± 4.5	25.81 ± 1.6
323.15 K	1.08 ± 0.11	1177.89 ± 4.7	44.3 ± 4.4	21.02 ± 1.3
328.15 K	1.19 ± 0.12	1174.36 ± 4.7	44 ± 4.4	17.17 ± 1
333.15 K	1.3 ± 0.13	1170.8 ± 4.7	43.7 ± 4.4	13.85 ± 0.84
338.15 K	1.41 ± 0.14	1167.24 ± 4.7	43.4 ± 4.4	11.43 ± 0.69
343.15 K	1.55 ± 0.15	1163.66 ± 4.7	43.1 ± 4.3	10.04 ± 0.61
